Results published in article PMC10946732.
Where two headings read alike, the source gives them in different places.

What was measured:
[1] = the molecule shown is the open-chain precursor; 42-membered ring
[2] = Two-component stapling: SNAr of two Cys thiolates (C-S bonds) on para-C-F of 5,10,15,20-tetrakis(pentafluorophenyl)porphyrin (2), 1 equiv; Cs2CO3 8 equiv, TCEP 4 equiv, N2; conditions: the molecule shown is the open-chain precursor, DMSO (dry), 3.3 mM, 25.0 °C, 2.0 h

**Q.** For CC(C)C[C@H](NC(=O)[C@H](C)NC(=O)[C@@H](NC(=O)[C@H](CCC(=O)O)NC(=O)[C@@H]1CCCN1C(=O)[C@H](C)NC(=O)[C@H](CCCCN)NC(=O)[C@@H](N)CSc1c(F)c(F)c(-c2c3nc(c(-c4c(F)c(F)c(F)c(F)c4F)c4ccc([nH]4)c(-c4c(F)c(F)c(F)c(F)c4F)c4nc(c(-c5c(F)c(F)c(F)c(F)c5F)c5ccc2[nH]5)C=C4)C=C3)c(F)c1F)[C@@H](C)O)C(=O)N[C@@H](CS)C(N)=O [H-Cys-Lys-Ala-Pro-Glu-Thr-Ala-Leu-Cys-NH2], which ring closure, conversion by HPLC [1] is on record?
**A.** Its ring closure, conversion by HPLC is 44%.

**Q.** What does the source list for C[C@H](N)C(=O)N[C@@H](CSc1c(F)c(F)c(-c2c3nc(c(-c4c(F)c(F)c(F)c(F)c4F)c4ccc([nH]4)c(-c4c(F)c(F)c(F)c(F)c4F)c4nc(c(-c5c(F)c(F)c(F)c(F)c5F)c5ccc2[nH]5)C=C4)C=C3)c(F)c1F)C(=O)N[C@H](C(=O)N[C@@H](CCC(N)=O)C(=O)N[C@@H](Cc1c[nH]cn1)C(=O)N[C@@H](CCC(N)=O)C(=O)N[C@@H](CS)C(=O)NCC(N)=O)[C@@H](C)O [H-Ala-Cys-Thr-Gln-His-Gln-Cys-Gly-NH2]?
**A.** ring closure, conversion by HPLC ([2]; 33-membered ring): 65%; ring closure, isolated yield ([2]; 33-membered ring): 25%

**Q.** With C[C@H](N)C(=O)N[C@@H](CSc1c(F)c(F)c(-c2c3nc(c(-c4c(F)c(F)c(F)c(F)c4F)c4ccc([nH]4)c(-c4c(F)c(F)c(F)c(F)c4F)c4nc(c(-c5c(F)c(F)c(F)c(F)c5F)c5ccc2[nH]5)C=C4)C=C3)c(F)c1F)C(=O)N[C@H](C(=O)N[C@@H](CO)C(=O)N[C@H](C(=O)N[C@@H](CCC(N)=O)C(=O)N[C@@H](Cc1c[nH]cn1)C(=O)N[C@@H](CCC(N)=O)C(=O)N[C@@H](CS)C(=O)NCC(N)=O)[C@@H](C)O)[C@@H](C)O [H-Ala-Cys-Thr-Ser-Thr-Gln-His-Gln-Cys-Gly-NH2] as the compound, how does the ring closure, conversion by HPLC ([2]; 39-membered ring) read?
**A.** Its ring closure, conversion by HPLC is 50%.

**Q.** For C[C@H](N)C(=O)N[C@@H](CSc1c(F)c(F)c(-c2c3nc(c(-c4c(F)c(F)c(F)c(F)c4F)c4ccc([nH]4)c(-c4c(F)c(F)c(F)c(F)c4F)c4nc(c(-c5c(F)c(F)c(F)c(F)c5F)c5ccc2[nH]5)C=C4)C=C3)c(F)c1F)C(=O)N[C@@H](C)C(=O)N[C@@H](CS)C(=O)NCC(N)=O [H-Ala-Cys-Ala-Cys-Gly-NH2], which ring closure, conversion by HPLC ([2]; 24-membered ring) is on record?
**A.** Its ring closure, conversion by HPLC is 6%.

**Q.** Which ring closure, conversion by HPLC ([2]; 48-membered ring) does the source give for C[C@H](N)C(=O)N[C@@H](CSc1c(F)c(F)c(-c2c3nc(c(-c4c(F)c(F)c(F)c(F)c4F)c4ccc([nH]4)c(-c4c(F)c(F)c(F)c(F)c4F)c4nc(c(-c5c(F)c(F)c(F)c(F)c5F)c5ccc2[nH]5)C=C4)C=C3)c(F)c1F)C(=O)N[C@@H](C)C(=O)N[C@H](C(=O)NCC(=O)N[C@@H](CO)C(=O)N[C@H](C(=O)N[C@@H](CCC(N)=O)C(=O)N[C@@H](Cc1c[nH]cn1)C(=O)N[C@@H](CCC(N)=O)C(=O)N[C@@H](C)C(=O)N[C@@H](CS)C(=O)NCC(N)=O)[C@@H](C)O)[C@@H](C)O [H-Ala-Cys-Ala-Thr-Gly-Ser-Thr-Gln-His-Gln-Ala-Cys-Gly-NH2] here?
**A.** The ring closure, conversion by HPLC was 35%.

**Q.** For CC[C@H](C)[C@H](NC(=O)[C@H](Cc1ccc(O)cc1)NC(=O)CNC(=O)[C@@H](NC(=O)[C@@H](NC(=O)[C@H](CSc1c(F)c(F)c(-c2c3nc(c(-c4c(F)c(F)c(F)c(F)c4F)c4ccc([nH]4)c(-c4c(F)c(F)c(F)c(F)c4F)c4nc(c(-c5c(F)c(F)c(F)c(F)c5F)c5ccc2[nH]5)C=C4)C=C3)c(F)c1F)NC(=O)[C@@H](N)CC(N)=O)C(C)C)C(C)C)C(=O)NCC(=O)N[C@@H](CCC(=O)O)C(=O)N[C@@H](CCCNC(=N)N)C(=O)N[C@@H](CS)C(=O)N[C@@H](CCC(N)=O)C(N)=O [H-Asn-Cys-Val-Val-Gly-Tyr-Ile-Gly-Glu-Arg-Cys-Gln-NH2], which ring closure, conversion by HPLC ([2]; 45-membered ring) is on record?
**A.** The ring closure, conversion by HPLC was 36%.

**Q.** With C[C@H](N)C(=O)N[C@@H](CSc1c(F)c(F)c(-c2c3nc(c(-c4c(F)c(F)c(F)c(F)c4F)c4ccc([nH]4)c(-c4c(F)c(F)c(F)c(F)c4F)c4nc(c(-c5c(F)c(F)c(F)c(F)c5F)c5ccc2[nH]5)C=C4)C=C3)c(F)c1F)C(=O)N[C@@H](CCC(N)=O)C(=O)N[C@@H](Cc1c[nH]cn1)C(=O)N[C@@H](CCC(N)=O)C(=O)N[C@@H](CS)C(=O)NCC(N)=O [H-Ala-Cys-Gln-His-Gln-Cys-Gly-NH2] as the compound, how does the ring closure, conversion by HPLC ([2]; 30-membered ring) read?
**A.** The ring closure, conversion by HPLC was 65%.

**Q.** What about the ring closure, isolated yield ([2]; 30-membered ring) of the same compound?
**A.** Its ring closure, isolated yield is 39%.

**Q.** With C[C@H](N)C(=O)N[C@@H](CSc1c(F)c(F)c(-c2c3nc(c(-c4c(F)c(F)c(F)c(F)c4F)c4ccc([nH]4)c(-c4c(F)c(F)c(F)c(F)c4F)c4nc(c(-c5c(F)c(F)c(F)c(F)c5F)c5ccc2[nH]5)C=C4)C=C3)c(F)c1F)C(=O)N[C@H](C(=O)N[C@@H](Cc1c[nH]cn1)C(=O)NCC(=O)N[C@@H](CCC(N)=O)C(=O)N[C@H](C(=O)N[C@@H](CCC(N)=O)C(=O)N[C@@H](CO)C(=O)N[C@@H](CS)C(=O)NCC(N)=O)[C@@H](C)O)[C@@H](C)O [H-Ala-Cys-Thr-His-Gly-Gln-Thr-Gln-Ser-Cys-Gly-NH2] as the compound, how does the ring closure, conversion by HPLC ([2]; 42-membered ring) read?
**A.** The ring closure, conversion by HPLC was 47%.

**Q.** What about the ring closure, isolated yield ([2]; 42-membered ring) of the same compound?
**A.** The ring closure, isolated yield was 10%.

**Q.** For C[C@H](N)C(=O)N[C@@H](CSc1c(F)c(F)c(-c2c3nc(c(-c4c(F)c(F)c(F)c(F)c4F)c4ccc([nH]4)c(-c4c(F)c(F)c(F)c(F)c4F)c4nc(c(-c5c(F)c(F)c(F)c(F)c5F)c5ccc2[nH]5)C=C4)C=C3)c(F)c1F)C(=O)N[C@@H](Cc1c[nH]cn1)C(=O)N[C@@H](CCC(N)=O)C(=O)N[C@@H](CS)C(=O)NCC(N)=O [H-Ala-Cys-His-Gln-Cys-Gly-NH2], which ring closure, conversion by HPLC ([2]; 27-membered ring) is on record?
**A.** The ring closure, conversion by HPLC was 65%.

**Q.** For C[C@H](N)C(=O)N[C@@H](CSc1c(F)c(F)c(-c2c3nc(c(-c4c(F)c(F)c(F)c(F)c4F)c4ccc([nH]4)c(-c4c(F)c(F)c(F)c(F)c4F)c4nc(c(-c5c(F)c(F)c(F)c(F)c5F)c5ccc2[nH]5)C=C4)C=C3)c(F)c1F)C(=O)N[C@@H](CS)C(=O)NCC(N)=O [H-Ala-Cys-Cys-Gly-NH2], which ring closure, conversion by HPLC ([2]; 21-membered ring) is on record?
**A.** The ring closure, conversion by HPLC was 0%.

**Q.** Which results are given for C[C@H](N)C(=O)N[C@@H](CSc1c(F)c(F)c(-c2c3nc(c(-c4c(F)c(F)c(F)c(F)c4F)c4ccc([nH]4)c(-c4c(F)c(F)c(F)c(F)c4F)c4nc(c(-c5c(F)c(F)c(F)c(F)c5F)c5ccc2[nH]5)C=C4)C=C3)c(F)c1F)C(=O)N[C@@H](CO)C(=O)N[C@H](C(=O)N[C@@H](CCC(N)=O)C(=O)N[C@@H](Cc1c[nH]cn1)C(=O)N[C@@H](CCC(N)=O)C(=O)N[C@@H](CS)C(=O)NCC(N)=O)[C@@H](C)O [H-Ala-Cys-Ser-Thr-Gln-His-Gln-Cys-Gly-NH2]?
**A.** ring closure, conversion by HPLC ([2]; 36-membered ring): 56%; ring closure, isolated yield ([2]; 36-membered ring): 24%

**Q.** With C[C@H](N)C(=O)N[C@@H](CSc1c(F)c(F)c(-c2c3nc(c(-c4c(F)c(F)c(F)c(F)c4F)c4ccc([nH]4)c(-c4c(F)c(F)c(F)c(F)c4F)c4nc(c(-c5c(F)c(F)c(F)c(F)c5F)c5ccc2[nH]5)C=C4)C=C3)c(F)c1F)C(=O)N[C@H](C(=O)NCC(=O)N[C@@H](CO)C(=O)N[C@H](C(=O)N[C@@H](CCC(N)=O)C(=O)N[C@@H](Cc1c[nH]cn1)C(=O)N[C@@H](CCC(N)=O)C(=O)N[C@@H](CS)C(=O)NCC(N)=O)[C@@H](C)O)[C@@H](C)O [H-Ala-Cys-Thr-Gly-Ser-Thr-Gln-His-Gln-Cys-Gly-NH2] as the compound, how does the ring closure, conversion by HPLC ([2]; 42-membered ring) read?
**A.** Its ring closure, conversion by HPLC is 46%.

**Q.** What about the ring closure, isolated yield ([2]; 42-membered ring) of the same compound?
**A.** The ring closure, isolated yield was 18%.

**Q.** Which ring closure, conversion by HPLC ([2]; 39-membered ring) does the source give for CC[C@H](C)[C@H](NC(=O)[C@H](CCCCN)NC(=O)CNC(=O)[C@H](CC(C)C)NC(=O)[C@H](CC(C)C)NC(=O)[C@H](Cc1ccc(O)cc1)NC(=O)CNC(=O)[C@H](C)N)C(=O)N[C@@H](CC(N)=O)C(=O)N[C@@H](CC(C)C)C(=O)N[C@@H](CCCCN)C(=O)N[C@@H](C)C(=O)N[C@@H](CSc1c(F)c(F)c(-c2c3nc(c(-c4c(F)c(F)c(F)c(F)c4F)c4ccc([nH]4)c(-c4c(F)c(F)c(F)c(F)c4F)c4nc(c(-c5c(F)c(F)c(F)c(F)c5F)c5ccc2[nH]5)C=C4)C=C3)c(F)c1F)C(=O)N[C@@H](C)C(=O)N[C@@H](C)C(=O)N[C@@H](CC(C)C)C(=O)N[C@@H](C)C(=O)N[C@@H](CCCCN)C(=O)N[C@@H](CCCCN)C(=O)N[C@@H](CS)C(=O)N[C@@H](CC(C)C)C(N)=O here?
**A.** Its ring closure, conversion by HPLC is 72%.

**Q.** Which ring closure, conversion by HPLC ([2]; 24-membered ring) does the source give for C[C@H](N)C(=O)N[C@@H](CSc1c(F)c(F)c(-c2c3nc(c(-c4c(F)c(F)c(F)c(F)c4F)c4ccc([nH]4)c(-c4c(F)c(F)c(F)c(F)c4F)c4nc(c(-c5c(F)c(F)c(F)c(F)c5F)c5ccc2[nH]5)C=C4)C=C3)c(F)c1F)C(=O)N[C@@H](Cc1c[nH]cn1)C(=O)N[C@@H](CS)C(=O)NCC(N)=O [H-Ala-Cys-His-Cys-Gly-NH2] here?
**A.** Its ring closure, conversion by HPLC is 43%.

**Q.** For C[C@H](N)C(=O)N[C@@H](CSc1c(F)c(F)c(-c2c3nc(c(-c4c(F)c(F)c(F)c(F)c4F)c4ccc([nH]4)c(-c4c(F)c(F)c(F)c(F)c4F)c4nc(c(-c5c(F)c(F)c(F)c(F)c5F)c5ccc2[nH]5)C=C4)C=C3)c(F)c1F)C(=O)N[C@@H](C)C(=O)N[C@H](C(=O)NCC(=O)N[C@@H](CO)C(=O)N[C@H](C(=O)N[C@@H](CCC(N)=O)C(=O)N[C@@H](Cc1c[nH]cn1)C(=O)N[C@@H](CCC(N)=O)C(=O)N[C@@H](CS)C(=O)NCC(N)=O)[C@@H](C)O)[C@@H](C)O [H-Ala-Cys-Ala-Thr-Gly-Ser-Thr-Gln-His-Gln-Cys-Gly-NH2], which ring closure, conversion by HPLC ([2]; 45-membered ring) is on record?
**A.** The ring closure, conversion by HPLC was 36%.
